# According to US20260335468A1, “MOLECULAR RADIOAFTERGLOW PROBES FOR CANCER RADIODYNAMIC THERANOSTICS” (NANYANG TECHNOLOGICAL UNIVERSITY, priority 2023, published 2026):
# Columns and labels:
# [1] = tested on: subcutaneous U87 tumour; experiment: RDT of subcutaneous U87 tumour-bearing mice with IDPASu; assay type: in vivo, mouse (BALB/c nude), human U87; settings: intratumoral, X-ray total 0.3 Gy in three fractions
# Procedure: To establish a subcutaneous glioblastoma mouse model, BALB/c nude mice (six weeks old, female) were anaesthetized with isoflurane (2.0%) and subcutaneously injected with human U87 or U87-Luc (2×10^6 per mouse) suspended in PBS (0.01 M, pH 7.4) on the left flank or bilateral flank of each mouse. The tumour size was calculated according to the formula V=½ab^2, where a and b are the longest and shortest diameter of the tumour, respectively. After tumour sizes reached ~70 mm^3, the mice were used for imaging and therapy. […] At 15 min post-injection, bioluminescence signals were recorded using an IVIS imaging system with an open filter and automatic acquisition time. […]
# For subcutaneous tumour therapy, to study the X-ray dynamic activity of IDPASu, U87-tumour-bearing mice were randomly divided into four groups (PBS, PBS+X-ray, IDPASu and IDPASu+X-ray), which includes five mice per group. […] The tumour volume and body weight of mice were monitored every two days. […] The brain tumour size was monitored using bioluminescence signals of luciferin from the tumour site every three days. […]
# [2] = Radio afterglow spectra, intensity and half-life of luminophores in PBS after X-ray; assay type: physicochemical
# Procedure: The optical properties of DPAs and IDPAs were investigated in an aqueous solution (FIGS. 2 and 3). […] Their half-lives ranged from 9.2 to 196.8 min (FIG. 4e).
# DPAs or IDPAs (100 μM) in 0.01 M PBS (pH 7.4, 50% DMSO) were irradiated by X-rays at 250 μGy s^−1 for 20 s (total, 5 mGy) under the specific setup parameter of 10 kV and 75 μA. Then, the radio afterglow signal was collected with an IVIS imaging system under the bioluminescence mode with an open filter and an acquisition time of 60 s. Finally, the radio afterglow intensities were quantified by a region-of-interest analysis using Living Image 4.3 software. In addition, the radio afterglow spectra of the candidates were acquired under the same test conditions with specific emission filters, and time courses of the signal were recorded as a function of time.
# [3] = O2·^− detection with DHR123 upon X-ray irradiation; assay type: physicochemical; settings: elevated radiation dosage
# Procedure: To study other ROS generation, fluorescence sensors DHR123 (for O2·^− detection) and HPF (for ·OH detection) were used. For O2·^− detection, DHR123 (10 PM) was added to a solution of IDPASu (10 M) in PBS (0.01 M pH 7.4, 50% DMSO), followed by X-ray irradiation at different doses of 5 mGy (250 μGy s^−1 for 20 s) and 2 Gy (100 mGy s^1 for 20 s). The fluorescence changes in DHR123 were recorded at λex of 505 nm and λem of 534 nm. For ·OH detection, HPF ([…]) was added in a solution of IDPASu (10 M) in PBS (0.01 M, pH 7.4, 50% DMF), followed by X-ray irradiation at different doses, namely, 5 mGy (250 μGy s^−1 for 20 s) and 2 Gy (100 mGy s^−1 for 20 s). The fluorescence changes in HPF were collected at ex of 450 nm and λem of 515 nm. The ROS production was calculated by the corresponding standard curve.
# [4] = Heat generation study; assay type: physicochemical; settings: 100 μM, X-ray 5 mGy
# Procedure: IDPASu (100 μM, 100 μL) solution and PBS in a round cap with the diameter of 1 cm were prepared and then irradiated by X-ray at dose of 5 mGy (250 μGy·s^−1 for 20 s), respectively. The temperatures of the IDPASu solution and PBS were recorded by FUR Infrared Camera (FLIR A35-Series, FUR Systems).
smiles,measurement,setting,value
COC(=C1C2CC3CC(C2)CC1C3)c1cc(O)c(I)cc1/C=C/C1=CC(=C(C#N)C#N)c2ccccc2S1 [IDPASu],body weight loss,[1],no loss in body weight
same,tumour growth,[1],completely inhibited the tumour growth
same,radio afterglow intensity increase versus iodine-free counterpart,"[2]; 100 μM, PBS pH 7.4, 50% DMSO, X-ray 5 mGy",6.46 fold
same,correlation of radio afterglow signal with concentration,[2]; IDPASu solution,linear correlation
same,"long-lasting radio afterglow, up to",[2]; X-ray 250 μGy s^−1 for 20 s,~ 25 h
same,radio afterglow emission maximum,"[2]; X-ray 250 μGy s^−1 for 20 s, aqueous solution",~ 773 nm
same,radio afterglow brightness / intensity,[2]; X-ray irradiation,highest brightness
same,repetitive induction of radio afterglow,[2]; after ten cycles of X-ray irradiation,minimal intensity decrease after ten cycles
same,O2·^− generation,[3],only minimal O2·^− could be generated
same,heat generation upon radiation,[4],did not cause any heat generation
